Experiments:
AMPK(r) = assay: kinase panel activity, AMPK(r); format: biochemical, rat; conditions: compound at 20 μM; vs reference with no compound
CDK3/cyclinE(h) = CDK3/cyclinE(h) (Homo sapiens, UniProt Q00526); assay: kinase panel activity, CDK3/cyclinE(h); format: biochemical; conditions: compound at 20 μM; vs reference with no compound
PKCα(h) = PKCα(h) (Homo sapiens, UniProt P17252); assay: kinase panel activity, PKCα(h); format: biochemical; conditions: compound at 20 μM; vs reference with no compound
PDGFRα(h) = PDGFRα(h) (Homo sapiens, UniProt P16234); assay: kinase panel activity, PDGFRα(h); format: biochemical; conditions: compound at 20 μM; vs reference with no compound
PDGFRβ(h) = PDGFRβ(h) (Homo sapiens, UniProt P09619); assay: kinase panel activity, PDGFRβ(h); format: biochemical; conditions: compound at 20 μM; vs reference with no compound
IR(h) = IR(h) (Homo sapiens, UniProt P06213); assay: kinase panel activity, IR(h); format: biochemical; conditions: compound at 20 μM; vs reference with no compound
DAPK2(h) = DAPK2(h) (Homo sapiens, UniProt Q9UIK4); assay: kinase panel activity, DAPK2(h); format: biochemical; conditions: compound at 20 μM; vs reference with no compound
IRR(h) = IRR(h) (Homo sapiens, UniProt P14616); assay: kinase panel activity, IRR(h); format: biochemical; conditions: compound at 20 μM; vs reference with no compound
MST1(h) = MST1(h) (Homo sapiens, UniProt Q13043); assay: kinase panel activity, MST1(h); format: biochemical; conditions: compound at 20 μM; vs reference with no compound
GSK3α(h) = GSK3α(h) (Homo sapiens, UniProt P49840); assay: kinase panel activity, GSK3α(h); format: biochemical; conditions: compound at 20 μM; vs reference with no compound
SAPK2a(T106M)(h) = SAPK2a(T106M)(h) (Homo sapiens, UniProt Q16539, T106M); assay: kinase panel activity, SAPK2a(T106M)(h); format: biochemical; conditions: compound at 20 μM; vs reference with no compound
ALK4(h) = ALK4(h) (Homo sapiens, UniProt P36896); assay: kinase panel activity, ALK4(h); format: biochemical; conditions: compound at 20 μM; vs reference with no compound
TrkB(h) = TrkB(h) (Homo sapiens, UniProt Q16620); assay: kinase panel activity, TrkB(h); format: biochemical; conditions: compound at 20 μM; vs reference with no compound
IRAK1(h) = IRAK1(h) (Homo sapiens, UniProt P51617); assay: kinase panel activity, IRAK1(h); format: biochemical; conditions: compound at 20 μM; vs reference with no compound
JNK2α2(h) = JNK2α2(h) (Homo sapiens, UniProt P45984); assay: kinase panel activity, JNK2α2(h); format: biochemical; conditions: compound at 20 μM; vs reference with no compound
TAK1(h) = TAK1(h) (Homo sapiens, UniProt O43318); assay: kinase panel activity, TAK1(h); format: biochemical; conditions: compound at 20 μM; vs reference with no compound
Rsk1(h) = Rsk1(h) (Homo sapiens, UniProt Q15418); assay: kinase panel activity, Rsk1(h); format: biochemical; conditions: compound at 20 μM; vs reference with no compound
NEK6(h) = NEK6(h) (Homo sapiens, UniProt Q9HC98); assay: kinase panel activity, NEK6(h); format: biochemical; conditions: compound at 20 μM; vs reference with no compound
MSK1(h) = MSK1(h) (Homo sapiens, UniProt O75582); assay: kinase panel activity, MSK1(h); format: biochemical; conditions: compound at 20 μM; vs reference with no compound
Met(h) = Met(h) (Homo sapiens, UniProt P08581); assay: kinase panel activity, Met(h); format: biochemical; conditions: compound at 20 μM; vs reference with no compound
PKBβ(h) = PKBβ(h) (Homo sapiens, UniProt P31751); assay: kinase panel activity, PKBβ(h); format: biochemical
PKBγ(h) = PKBγ(h) (Homo sapiens, UniProt Q9Y243); assay: kinase panel activity, PKBγ(h); format: biochemical
LKB1(h) = LKB1(h) (Homo sapiens, UniProt Q15831); assay: kinase panel activity, LKB1(h); format: biochemical; conditions: compound at 20 μM; vs reference with no compound
PKA(h) = PKA(h) (Homo sapiens, UniProt P17612); assay: kinase panel activity, PKA(h); format: biochemical; conditions: compound at 20 μM; vs reference with no compound
CDK9/cyclin T1(h) = CDK9/cyclin T1(h) (Homo sapiens, UniProt P50750); assay: kinase panel activity, CDK9/cyclin T1(h); format: biochemical; conditions: compound at 20 μM; vs reference with no compound
IGF-1R(h) = IGF-1R(h) (Homo sapiens, UniProt P08069); assay: kinase panel activity, IGF-1R(h); format: biochemical; conditions: compound at 20 μM; vs reference with no compound
CDK7/cyclinH/MAT1(h) = CDK7/cyclinH/MAT1(h) (Homo sapiens, UniProt P50613); assay: kinase panel activity, CDK7/cyclinH/MAT1(h); format: biochemical; conditions: compound at 20 μM; vs reference with no compound
NEK3(h) = NEK3(h) (Homo sapiens, UniProt P51956); assay: kinase panel activity, NEK3(h); format: biochemical; conditions: compound at 20 μM; vs reference with no compound
SGK(h) = SGK(h) (Homo sapiens, UniProt O00141); assay: kinase panel activity, SGK(h); format: biochemical; conditions: compound at 20 μM; vs reference with no compound
MSK2(h) = MSK2(h) (Homo sapiens, UniProt O75676); assay: kinase panel activity, MSK2(h); format: biochemical; conditions: compound at 20 μM; vs reference with no compound
CHK1(h) = CHK1(h) (Homo sapiens, UniProt O14757); assay: kinase panel activity, CHK1(h); format: biochemical; conditions: compound at 20 μM; vs reference with no compound
DAPK1(h) = DAPK1(h) (Homo sapiens, UniProt P53355); assay: kinase panel activity, DAPK1(h); format: biochemical; conditions: compound at 20 μM; vs reference with no compound
PDK1(h) = PDK1(h) (Homo sapiens, UniProt O15530); assay: kinase panel activity, PDK1(h); format: biochemical; conditions: compound at 20 μM; vs reference with no compound
PIk3(h) = PIk3(h) (Homo sapiens, UniProt Q9H4B4); assay: kinase panel activity, PIk3(h); format: biochemical; conditions: compound at 20 μM; vs reference with no compound
PAK4(h) = PAK4(h) (Homo sapiens, UniProt O96013); assay: kinase panel activity, PAK4(h); format: biochemical; conditions: compound at 20 μM; vs reference with no compound
ALK(h) = ALK(h) (Homo sapiens, UniProt Q9UM73); assay: kinase panel activity, ALK(h); format: biochemical; conditions: compound at 20 μM; vs reference with no compound
SAPK2b(h) = SAPK2b(h) (Homo sapiens, UniProt Q15759); assay: kinase panel activity, SAPK2b(h); format: biochemical; conditions: compound at 20 μM; vs reference with no compound
PKBα(h) = PKBα(h) (Homo sapiens, UniProt P31749); assay: kinase panel activity, PKBα(h); format: biochemical
SIK(h) = SIK(h) (Homo sapiens, UniProt P57059); assay: kinase panel activity, SIK(h); format: biochemical; conditions: compound at 20 μM; vs reference with no compound
TrkA(h) = TrkA(h) (Homo sapiens, UniProt P04629); assay: kinase panel activity, TrkA(h); format: biochemical; conditions: compound at 20 μM; vs reference with no compound
[1] = compound at 20 μM, vs reference with no compound

PIk3(h), sequence (Q9H4B4 whole entry): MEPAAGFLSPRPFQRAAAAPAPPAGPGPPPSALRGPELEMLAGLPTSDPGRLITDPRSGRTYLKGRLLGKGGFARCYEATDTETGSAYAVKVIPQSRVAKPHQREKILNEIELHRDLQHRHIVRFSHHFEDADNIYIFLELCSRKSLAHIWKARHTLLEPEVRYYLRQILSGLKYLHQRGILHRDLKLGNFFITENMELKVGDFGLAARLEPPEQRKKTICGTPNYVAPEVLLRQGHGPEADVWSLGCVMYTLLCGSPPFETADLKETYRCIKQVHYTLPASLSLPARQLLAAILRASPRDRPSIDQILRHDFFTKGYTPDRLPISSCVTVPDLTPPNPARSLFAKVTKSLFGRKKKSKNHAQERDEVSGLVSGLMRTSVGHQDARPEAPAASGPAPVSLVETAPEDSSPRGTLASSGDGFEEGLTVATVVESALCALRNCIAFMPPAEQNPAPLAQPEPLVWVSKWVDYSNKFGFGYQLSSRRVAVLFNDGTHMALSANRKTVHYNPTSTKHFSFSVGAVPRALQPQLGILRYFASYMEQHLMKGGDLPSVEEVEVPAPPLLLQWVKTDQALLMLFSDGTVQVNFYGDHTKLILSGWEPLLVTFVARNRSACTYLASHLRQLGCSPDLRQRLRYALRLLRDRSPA
PDGFRα(h), sequence (P16234 24-1089): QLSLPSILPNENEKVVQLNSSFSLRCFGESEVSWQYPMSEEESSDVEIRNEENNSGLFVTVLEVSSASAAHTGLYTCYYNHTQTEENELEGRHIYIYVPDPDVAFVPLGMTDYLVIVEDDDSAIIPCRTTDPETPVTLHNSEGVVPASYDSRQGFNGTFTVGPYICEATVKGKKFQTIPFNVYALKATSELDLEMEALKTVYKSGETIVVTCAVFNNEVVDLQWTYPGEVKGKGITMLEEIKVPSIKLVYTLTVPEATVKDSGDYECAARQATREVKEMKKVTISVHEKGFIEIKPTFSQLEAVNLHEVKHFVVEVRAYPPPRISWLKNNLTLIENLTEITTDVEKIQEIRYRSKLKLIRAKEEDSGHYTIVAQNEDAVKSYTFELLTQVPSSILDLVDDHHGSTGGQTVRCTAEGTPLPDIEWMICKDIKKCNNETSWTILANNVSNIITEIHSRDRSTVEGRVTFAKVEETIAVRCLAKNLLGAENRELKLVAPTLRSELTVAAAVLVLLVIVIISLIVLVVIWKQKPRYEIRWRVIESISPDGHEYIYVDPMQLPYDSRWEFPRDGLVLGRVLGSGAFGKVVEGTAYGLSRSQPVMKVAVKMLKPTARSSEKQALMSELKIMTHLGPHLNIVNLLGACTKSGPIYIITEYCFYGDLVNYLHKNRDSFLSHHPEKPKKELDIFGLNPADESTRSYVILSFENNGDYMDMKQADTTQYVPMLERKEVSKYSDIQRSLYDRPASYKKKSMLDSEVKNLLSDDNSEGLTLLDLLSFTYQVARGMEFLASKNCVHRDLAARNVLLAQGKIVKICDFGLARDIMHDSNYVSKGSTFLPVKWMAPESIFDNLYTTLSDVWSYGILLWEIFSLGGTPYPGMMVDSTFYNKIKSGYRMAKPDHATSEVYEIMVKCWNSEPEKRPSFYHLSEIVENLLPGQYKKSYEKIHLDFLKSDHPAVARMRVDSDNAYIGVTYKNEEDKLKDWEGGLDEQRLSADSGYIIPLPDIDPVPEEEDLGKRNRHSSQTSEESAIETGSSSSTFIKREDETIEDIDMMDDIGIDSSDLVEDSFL
LKB1(h), sequence (Q15831 whole entry): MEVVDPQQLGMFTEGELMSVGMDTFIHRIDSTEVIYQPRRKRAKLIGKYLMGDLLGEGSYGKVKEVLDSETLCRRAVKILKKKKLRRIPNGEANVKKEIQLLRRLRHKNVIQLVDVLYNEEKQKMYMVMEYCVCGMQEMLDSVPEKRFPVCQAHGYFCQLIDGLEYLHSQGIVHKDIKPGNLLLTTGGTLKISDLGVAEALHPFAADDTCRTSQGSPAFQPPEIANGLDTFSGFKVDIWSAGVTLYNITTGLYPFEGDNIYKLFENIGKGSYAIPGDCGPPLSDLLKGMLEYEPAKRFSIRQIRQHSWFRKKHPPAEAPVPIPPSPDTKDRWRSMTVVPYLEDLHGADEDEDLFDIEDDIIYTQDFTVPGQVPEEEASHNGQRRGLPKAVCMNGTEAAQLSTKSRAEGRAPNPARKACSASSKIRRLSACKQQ
LKB1(h), sequence (Q7RTN6 whole entry partner): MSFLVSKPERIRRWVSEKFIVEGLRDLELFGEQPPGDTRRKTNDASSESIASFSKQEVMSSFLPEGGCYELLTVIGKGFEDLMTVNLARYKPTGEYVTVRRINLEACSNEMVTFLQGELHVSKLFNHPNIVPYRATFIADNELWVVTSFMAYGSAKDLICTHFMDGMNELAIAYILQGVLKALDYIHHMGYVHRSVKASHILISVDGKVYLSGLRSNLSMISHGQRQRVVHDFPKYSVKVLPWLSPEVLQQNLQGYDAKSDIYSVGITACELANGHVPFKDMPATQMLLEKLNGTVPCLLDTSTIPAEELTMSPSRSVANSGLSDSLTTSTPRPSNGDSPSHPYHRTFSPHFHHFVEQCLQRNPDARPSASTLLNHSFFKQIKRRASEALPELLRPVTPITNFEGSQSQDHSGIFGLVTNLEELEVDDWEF
LKB1(h), sequence (Q9Y376 whole entry partner): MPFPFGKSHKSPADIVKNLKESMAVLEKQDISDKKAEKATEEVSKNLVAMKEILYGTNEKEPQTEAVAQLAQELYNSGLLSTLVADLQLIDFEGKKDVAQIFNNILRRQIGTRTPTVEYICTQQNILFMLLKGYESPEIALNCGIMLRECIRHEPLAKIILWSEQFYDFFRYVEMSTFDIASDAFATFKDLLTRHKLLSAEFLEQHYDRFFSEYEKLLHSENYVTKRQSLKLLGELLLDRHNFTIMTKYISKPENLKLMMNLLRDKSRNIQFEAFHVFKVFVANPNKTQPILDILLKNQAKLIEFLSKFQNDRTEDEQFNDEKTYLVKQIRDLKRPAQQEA
IR(h), sequence (P06213 28-1382): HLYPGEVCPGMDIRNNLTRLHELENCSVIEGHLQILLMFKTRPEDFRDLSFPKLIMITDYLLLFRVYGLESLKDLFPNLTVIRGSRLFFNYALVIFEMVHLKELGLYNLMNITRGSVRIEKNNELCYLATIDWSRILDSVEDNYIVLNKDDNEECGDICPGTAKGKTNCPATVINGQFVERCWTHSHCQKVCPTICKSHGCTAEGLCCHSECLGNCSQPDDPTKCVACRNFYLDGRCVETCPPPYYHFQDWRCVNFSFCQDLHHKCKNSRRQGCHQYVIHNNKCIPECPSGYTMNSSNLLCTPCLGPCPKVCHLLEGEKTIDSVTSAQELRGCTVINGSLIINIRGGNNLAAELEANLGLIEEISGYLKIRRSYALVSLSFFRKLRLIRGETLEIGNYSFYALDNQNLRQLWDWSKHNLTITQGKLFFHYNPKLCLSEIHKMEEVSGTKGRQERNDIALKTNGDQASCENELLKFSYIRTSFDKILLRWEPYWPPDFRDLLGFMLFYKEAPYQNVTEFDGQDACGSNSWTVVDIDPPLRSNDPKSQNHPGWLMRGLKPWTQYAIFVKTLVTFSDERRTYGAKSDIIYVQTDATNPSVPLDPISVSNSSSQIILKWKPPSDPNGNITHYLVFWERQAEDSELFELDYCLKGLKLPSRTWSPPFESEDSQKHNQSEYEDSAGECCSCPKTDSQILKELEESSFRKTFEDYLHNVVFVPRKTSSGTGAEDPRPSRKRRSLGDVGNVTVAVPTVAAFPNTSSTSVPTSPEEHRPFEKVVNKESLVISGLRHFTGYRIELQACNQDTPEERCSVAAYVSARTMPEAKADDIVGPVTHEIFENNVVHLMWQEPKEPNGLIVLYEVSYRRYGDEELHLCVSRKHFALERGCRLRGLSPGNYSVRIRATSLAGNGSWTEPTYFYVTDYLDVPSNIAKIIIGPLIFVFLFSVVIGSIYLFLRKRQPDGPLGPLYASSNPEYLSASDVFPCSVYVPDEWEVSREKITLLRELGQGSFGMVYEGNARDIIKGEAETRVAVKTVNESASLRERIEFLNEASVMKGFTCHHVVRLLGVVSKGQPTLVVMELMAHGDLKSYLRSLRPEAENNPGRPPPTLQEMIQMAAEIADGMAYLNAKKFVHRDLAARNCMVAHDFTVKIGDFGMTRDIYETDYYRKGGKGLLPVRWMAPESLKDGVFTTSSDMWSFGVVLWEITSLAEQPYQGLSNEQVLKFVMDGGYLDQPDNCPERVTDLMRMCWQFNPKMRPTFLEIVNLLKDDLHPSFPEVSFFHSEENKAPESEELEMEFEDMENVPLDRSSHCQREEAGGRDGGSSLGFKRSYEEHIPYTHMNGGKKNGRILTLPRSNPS
GSK3α(h), sequence (P49840 whole entry): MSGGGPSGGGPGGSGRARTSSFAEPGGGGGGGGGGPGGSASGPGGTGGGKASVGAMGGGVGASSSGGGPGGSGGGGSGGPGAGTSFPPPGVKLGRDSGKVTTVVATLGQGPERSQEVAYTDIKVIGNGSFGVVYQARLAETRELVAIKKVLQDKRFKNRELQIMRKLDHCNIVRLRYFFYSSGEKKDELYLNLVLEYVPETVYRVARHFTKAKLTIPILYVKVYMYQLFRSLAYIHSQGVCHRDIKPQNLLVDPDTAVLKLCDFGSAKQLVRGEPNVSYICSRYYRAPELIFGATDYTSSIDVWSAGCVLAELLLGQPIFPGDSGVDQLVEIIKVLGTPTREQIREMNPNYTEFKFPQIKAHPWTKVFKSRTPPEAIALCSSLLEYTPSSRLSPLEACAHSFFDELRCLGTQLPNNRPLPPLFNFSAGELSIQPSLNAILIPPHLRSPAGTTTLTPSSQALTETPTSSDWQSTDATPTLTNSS

SMILES	percent activity of AMPK(r) (AMPK(r)) [%]	percent activity of CDK3/cyclinE(h) (CDK3/cyclinE(h)) [%]	percent activity of PKCα(h) (PKCα(h)) [%]	percent activity of PDGFRα(h) (PDGFRα(h)) [%]	percent activity of PDGFRβ(h) (PDGFRβ(h)) [%]	percent activity of IR(h) (IR(h)) [%]	percent activity of DAPK2(h) (DAPK2(h)) [%]	percent activity of IRR(h) (IRR(h)) [%]	percent activity of MST1(h) (MST1(h)) [%]	percent activity of GSK3α(h) (GSK3α(h)) [%]	percent activity of SAPK2a(T106M)(h) (SAPK2a(T106M)(h)) [%]	percent activity of ALK4(h) (ALK4(h)) [%]	percent activity of TrkB(h) (TrkB(h)) [%]	percent activity of IRAK1(h) (IRAK1(h)) [%]	percent activity of JNK2α2(h) (JNK2α2(h)) [%]	percent activity of TAK1(h) (TAK1(h)) [%]	percent activity of Rsk1(h) (Rsk1(h)) [%]	percent activity of NEK6(h) (NEK6(h)) [%]	percent activity of MSK1(h) (MSK1(h)) [%]	percent activity of Met(h) (Met(h)) [%]	also measured
Oc1ccc(C=Cc2cc(O)cc(O)c2)cc1 [resveratrol, 3,5,4′-trihydroxystilbene]	39	75	114	114	119	71	67	40	75	79	102	110	98	97	110	105	70	140	58	114	activity at 20 µM (PKBβ(h); read-out: percent activity of PKBβ(h)): 105%; activity at 20 µM (PKBγ(h); read-out: percent activity of PKBγ(h)): 89%; percent activity of LKB1(h) (LKB1(h)): 102%; percent activity of PKA(h) (PKA(h)): 100%; percent activity of CDK9/cyclin T1(h) (CDK9/cyclin T1(h)): 70%; percent activity of IGF-1R(h) (IGF-1R(h)): 75%; percent activity of CDK7/cyclinH/MAT1(h) (CDK7/cyclinH/MAT1(h)): 95%; percent activity of NEK3(h) (NEK3(h)): 96%; percent activity of SGK(h) (SGK(h)): 86%; percent activity of MSK2(h) (MSK2(h)): 60%; percent activity of CHK1(h) (CHK1(h)): 95%; percent activity of DAPK1(h) (DAPK1(h)): 71%; percent activity of PDK1(h) (PDK1(h)): 108%; percent activity of PIk3(h) (PIk3(h)): 95%; percent activity of PAK4(h) (PAK4(h)): 103%; percent activity of ALK(h) (ALK(h)): 39%; percent activity of SAPK2b(h) (SAPK2b(h)): 100%; activity at 20 µM (PKBα(h); read-out: percent activity of PKBα(h)): 94%; percent activity of SIK(h) (SIK(h)): 76%; percent activity of TrkA(h) (TrkA(h)): 31%
O=C(O)[C@H]1O[C@@H](Oc2ccc(/C=C/c3cc(O)cc(O)c3)cc2)[C@H](O)[C@@H](O)[C@@H]1O [Res 4′-Gluc, resveratrol-4-glucuronide]	43	101	100	114	119	80	92	93	106	57	109	104	100	100	123	113	104	107	110	122	percent activity of PKBβ(h) (PKBβ(h); [1]): 94%; percent activity of PKBγ(h) (PKBγ(h); [1]): 101%; percent activity of LKB1(h) (LKB1(h)): 95%; percent activity of PKA(h) (PKA(h)): 105%; percent activity of CDK9/cyclin T1(h) (CDK9/cyclin T1(h)): 105%; percent activity of IGF-1R(h) (IGF-1R(h)): 87%; percent activity of CDK7/cyclinH/MAT1(h) (CDK7/cyclinH/MAT1(h)): 110%; percent activity of NEK3(h) (NEK3(h)): 105%; percent activity of SGK(h) (SGK(h)): 48%; percent activity of MSK2(h) (MSK2(h)): 94%; percent activity of CHK1(h) (CHK1(h)): 117%; percent activity of DAPK1(h) (DAPK1(h)): 107%; percent activity of PDK1(h) (PDK1(h)): 97%; percent activity of PIk3(h) (PIk3(h)): 86%; percent activity of PAK4(h) (PAK4(h)): 107%; percent activity of ALK(h) (ALK(h)): 87%; percent activity of SAPK2b(h) (SAPK2b(h)): 111%; percent activity of PKBα(h) (PKBα(h); [1]): 96%; percent activity of SIK(h) (SIK(h)): 74%; percent activity of TrkA(h) (TrkA(h)): 32%
